# Columns and labels:
# [1] = system: kultivierte Zellen aus der Nasenschleimhaut; experiment: Proliferation of cultured nasal mucosa (epithelial) cells; assay type: cell-based, Mensch; details: treatment with 1,8-Cineol (Figur 2B)
# Excerpt: Material und Methoden: Die Anmelderin hat Gewebeproben aus Nasenpolypen und unteren Nasenmuscheln von Patienten mit CRSwNP (chronischer Rhinosinusitis mit Nasenpolypen) und aus unteren Nasenmuscheln von Probanden ohne chronische Sinusitis (gesunde Schleimhaut) auf Basis von immunohistochemischen Methoden und Immunoblot-Verfahren untersucht. Die zelluläre Proliferation und Migration wurden unter Einsatz des xCELLigence Real Time Cell Analyzer untersucht.
# Die Zellproliferation wurde mittels eines quantitativen kolorimetrischen 3-(4,5-Dimethylthiazol 2-yl)-2,5-diphenyltetrazoliumbromid-basierten (MTT) Zelltests bestimmt. Dieser Test bestimmt die Anzahl an lebensfähigen Zellen auf Basis der mitochondrialen Umwandlung von MTT.
# Die Proliferation wurde mittels eines MTT-Tests von Sigma-Aldrich ("In Vitro Toxicology Assay Kit") entsprechend den Instruktionen des Herstellers ermittelt.
# Im Vergleich zur gesunden Nasenschleimhaut weisen Nasenpolypen eine andere Morphologie auf, was anhand von immunohistochemischen Färbungen mit Hämatoxylin-Eosin (HE) an gefrorenen Gewebeschnitten gezeigt werden konnte (Figur 1). Mit dieser Färbemethode werden basophile Strukturen mit Blau-Lila und eosinophile Strukturen mit hellem Pink angefärbt, wohingegen hydrophobe Strukturen, wie die Membranen des Golgi-Apparats, ungefärbt bzw. klar bleiben. […]
# GSK-3-alpha/beta = experiment: Western blot of phospho-GSK-3 (Ser-9/-21) in nasal polyp samples; assay type: cell-based, Mensch; details: 100 µM, 24 h (Figur 4A)
# Protocol: Lysate von Geweben wurden durch Erhitzen über einen Zeitraum von 5 Minuten in einfachem SDS-Probenpuffer (Carl Roth GmbH, Karlsruhe, Deutschland) denaturiert. Die Proteinkonzentrationen wurden mittels des Bradford-Tests bestimmt und jeweils 30 µg Gesamtprotein wurden zur SDS-Polyacrylamid-Gel Elektrophorese eingesetzt (Mini-Protean TGX®, Any kD, BioRad, Hercules, CA, USA) und anschließend auf Nitrozellulosemembranen übertragen. Die Übertragung der Proteine wurde mittels Ponceau-Färbung kontrolliert. […]
# Um die Beladungsmenge jeder Spur zu bestimmen, wurden die Nitrozellulosemembranen über Nacht bei 4 °C mit einem primären Antikörper der GAPDH (Cell Signaling Technology Inc., Massachusetts, Katalognummer: 14C10) in einer Verdünnung von 1 : 1.000 inkubiert. […] Die Pixeldichten wurden quantifiziert und mittels Fusion FX7® unter Einsatz von Bio-1D Software® dokumentiert. […]
# [2] = system: allen untersuchten Zellspezies; experiment: Vitality/proliferation, summary over all cell species investigated; assay type: cell-based; details: 10mM
# Protocol: Erste Vorversuche zum Einfluss von Cineol auf die Progression von Polyposis nasi et sinuum wurden durchgeführt. Hierzu wurden zunächst Einzelzellsuspensionen hergestellt und diese wurden in der Zellkultur über einen Zeitraum von 288 Stunden mit Standardmedium und mit 1mM Cineol inkubiert.
# Es wurden weiterführende Untersuchungen durchgeführt zur Analyse des Einflusses von Cineol auf die Vitalität und Proliferation verschiedener permanenter Zelllinien. Hierzu wurden einerseits die zwei HNSCC-Zelllinien und des Weiteren eine Fibroblastenzelllinie verwendet. Diese wurden über einen Zeitraum von 250 Stunden mit verschiedenen Cineol-Konzentrationen kultiviert (1 mM bis 10 mM) und die Vitalität der Zellen wurde jeweils mittels eines MTT-Assays untersucht.
# Hierbei zeigte sich ein ähnliches Bild wie in den vorhergegangenen Untersuchungen zum Einfluss von Cineol auf die Vitalität von Polyposis nasi et sinuum-Einzelzellsupensionen, wobei sich jedoch die permanenten Zelllinien erst zu geringfügig späteren Zeitpunkten und bei geringfügig höheren Cineol-Konzentrationen signifikant in ihrer Proliferation beeinflussen ließen. […]
smiles,measurement,setting,value
"CC12CCC(CC1)C(C)(C)O2 [1,8-Cineol, 1,3,3-Trimethyl-2-oxabicyclo[2.2.2]octan]",Proliferation kultivierter Zellen aus der Nasenschleimhaut,[1],nicht beeinflusst
same,Phosphorylierung von GSK-3-alpha/beta an Serin-9/-21,GSK-3-alpha/beta,verringerten Phosphorylierung
same,zytotoxische Wirkung,[2],deutlich zytotoxischen Wirkung
